# Paper PMC12195982, “Design, Synthesis, and In Vitro Evaluation of 4-(Arylchalcogenyl)methyl)-1H-1,2,3-triazol-1-yl-menadione: Exploring Their Potential Against Tuberculosis” (Pharmaceuticals, 2025)
# Read-outs that look alike come from different tables or passages of the source.
# Tests used:
# [1] = tested on: Mtb; conditions: cited from earlier work
# [2] = tested on: VERO cell line; type: cell-based; conditions: for cytotoxicity: MTT method, VERO cell line
# Procedure: First, a VERO cell line suspension was prepared and distributed into each of the 96 wells of the culture plate, which was then incubated for 48 h to allow the cells to adhere. After this period, the suspension medium was discarded, and the cells were exposed to the substances under study, leaving them in the wells for a period of between 24 and 48 h. After this, the substance was discarded, and the cells were washed with a buffer, with MTT being added, followed by a 3 h incubation. After this period, the MTT was discarded, and Dimethyl sulfoxide (DMSO) was added to solubilize the formazan crystals generated. Finally, the absorbance of each well of the plate was obtained using a microplate spectrophotometer. The absorbance was quantified based on the readings that the equipment makes, based on the different intensities of the purple color in the wells of the plate; the more purple the well, the more viable cells there are.
# [3] = tested on: Mtb strain H37Rv ATCC 27294; assay: Microplate Alamar Blue Assay (MABA), susceptible strain; type: cell-based; conditions: Mycobacterium tuberculosis
# [4] = target: protein kinase B (PknB); conditions: cited from earlier work
# [5] = Mtb H37Rv, strain sensitive to all first- and second-line drugs, MABA, triplicate, read-out: MIC
# [6] = as quoted in sections 2.2 and 2.3, strain not stated, read-out: MIC (antimycobacterial activity)
SMILES,"MIC [3, 5] [µg/mL]",also measured
C=CCC1[Se]c2ccccc2C1=O (centres unmarked) [Compound 1],–,MIC ([1]; anti-TB activity): 12.5 µg/mL
C/C(=N/N=C1/NC(=O)CS1)c1ccc(-c2ccccc2)cc1 [Compound 2],–,MIC ([1]; anti-TB activity): 12.5 µg/mL
O=C1NC(c2ccc(OCc3cn(-c4ccc(F)cc4F)nn3)cc2)Nc2ccccc21 (centres unmarked) [Compound 4],–,MIC ([1]; anti-TB action): 0.78 µg/mL
O=C1NC(c2ccc(OCc3cn(-c4ccc(F)c(F)c4)nn3)cc2)Nc2ccccc21 (centres unmarked) [Compound 5],–,MIC ([1]; anti-TB action): 3.12 µg/mL
"CC1=C(Cn2cc(C[Se]c3ccccc3)nn2)C(=O)c2ccccc2C1=O [Compound 9a, 2-methyl-3-((4-((phenylselanyl)methyl)-1H-1,2,3-triazolyl)methyl)naphthalene-1,4-dione]",6.23,"cytotoxicity [2]: minimal cytotoxicity; toxicity at concentrations of up to 100 µg/mL [2]: non-toxic; MIC [3, 6]: 6.76 µg/mL"
"CC1=C(Cn2cc(C[Se]c3ccc(Cl)cc3)nn2)C(=O)c2ccccc2C1=O [Compound 9b, 2-((4-(((4-chlorophenyl)selanyl)methyl)-1H-1,2,3-triazolyl)methyl)-3-methylnaphthalene-1,4-dione]",3.2,"cytotoxicity [2]: minimal cytotoxicity; toxicity at concentrations of up to 100 µg/mL [2]: non-toxic; MIC [3, 6]: 3.2 µg/mL"
CC1=C(Cn2cc(C[Se]c3cccc(C(F)(F)F)c3)nn2)C(=O)c2ccccc2C1=O [Compound 9c],≤ 49.9,–
"CC1=C(Cn2cc(C[Se]c3c(C)cc(C)cc3C)nn2)C(=O)c2ccccc2C1=O [Compound 9d, 2-((4-((2,4,6-trimethyl-phenylselanyl)methyl)-1H-1,2,3-triazolyl)methyl)-3-methylnaphthalene-1,4-dione]",> 99.9,–
"CC1=C(Cn2cc(C[Se]c3ccc4ccccc4c3)nn2)C(=O)c2ccccc2C1=O [Compound 9e, 2-methyl-3-((4-((naphthalenylselanyl)methyl)-1H-1,2,3-triazolyl)methyl)naphthalene-1,4-dione]",99.9,–
"CC1=C(C(C)n2cc(C[Se]c3ccccc3)nn2)C(=O)c2ccccc2C1=O (centres unmarked) [Compound 9f, 2-methyl-3-(1-(4-((phenylselanyl)methyl)-1H-1,2,3-triazolyl)ethyl)naphthalene-1,4-dione]",6.23,"MIC [3, 6]: > 43.6 µg/mL"
"CC1=C(C(c2ccccc2)n2cc(C[Se]c3ccccc3)nn2)C(=O)c2ccccc2C1=O (centres unmarked) [Compound 9g, 2-methyl-3-(phenyl(4-((phenylselanyl)methyl)-1H-1,2,3-triazolyl)methyl)naphthalene-1,4-dione]",12.5,"cytotoxicity [2]: minimal cytotoxicity; toxicity at concentrations of up to 100 µg/mL [2]: non-toxic; MIC [3, 6]: 3.12 µg/mL"
"CC1=C(C(c2ccc(C)cc2)n2cc(C[Se]c3ccccc3)nn2)C(=O)c2ccccc2C1=O (centres unmarked) [Compound 9h, 2-methyl-3-((4-((phenylselanyl)methyl)-1H-1,2,3-triazolyl)(p-methylphenyl)methyl) naphthalene-1,4-dione]",24.9,cytotoxicity [2]: minimal cytotoxicity; toxicity at concentrations of up to 100 µg/mL [2]: non-toxic
"CC1=C(Cn2cc(CSc3ccccc3)nn2)C(=O)c2ccccc2C1=O [Compound 10a, 2-methyl-3-((4-((phenylthiol)methyl)-1H-1,2,3-triazolyl)methyl)naphthalene-1,4-dione]",100,–
"CC1=C(Cn2cc(CSc3ccc(Cl)cc3)nn2)C(=O)c2ccccc2C1=O [Compound 10b, 2-((4-(((4-chlorophenyl)thiol)methyl)-1H-1,2,3-triazolyl)methyl)-3-methylnaphthalene-1,4-dione]",> 100,–
"CC1=C(Cn2cc(CSc3ccc(C)cc3)nn2)C(=O)c2ccccc2C1=O [Compound 10c, 2-methyl-3-((4-((p-methylphenylthiol)methyl)-1H-1,2,3-triazolyl)methyl)naphthalene-1,4-dione]",> 100,–
"CC1=C(Cn2cc(CSc3ccccc3C)nn2)C(=O)c2ccccc2C1=O [Compound 10d, 2-methyl-3-((4-((o-methylphenylthiol)methyl)-1H-1,2,3-triazolyl)methyl)naphthalene-1,4-dione]",> 100,–
"CC1=C(Cn2cc(CSCc3ccco3)nn2)C(=O)c2ccccc2C1=O [Compound 10e, 2-((4-(((furan-2-ylmethyl)thiol)methyl)-1H-1,2,3-triazolyl)methyl)-3-methylnaphthalene-1,4-dione]",> 100,–
"CC1=C(C(C)n2cc(CSc3ccccc3)nn2)C(=O)c2ccccc2C1=O (centres unmarked) [Compound 10f, 2-methyl-3-(1-(4-((phenylthiol)methyl)-1H-1,2,3-triazolyl)ethyl)naphthalene-1,4-dione]",100,–
"CC1=C(C(c2ccccc2)n2cc(CSc3ccccc3)nn2)C(=O)c2ccccc2C1=O (centres unmarked) [Compound 10g, 2-methyl-3-(phenyl(4-((phenylthiol)methyl)-1H-1,2,3-triazolyl)methyl)naphthalene-1,4-dione]",> 100,–
"CC1=C(C(c2ccc(C)cc2)n2cc(CSc3ccccc3)nn2)C(=O)c2ccccc2C1=O (centres unmarked) [Compound 10h, 2-methyl-3-((4-((phenylthiol)methyl)-1H-1,2,3-triazolyl)(p-methylphenyl)methyl)naphthalene-1,4-dione]",> 100,–
"NNC(=O)c1ccncc1 [INH, isoniazid, reference compound]",0.12,–
"NC(=O)c1cnccn1 [PZA, pyrazinamide, reference compound]",100,–
"O=C1c2c(O)ccc(O)c2C(=O)c2c(NCCNCCO)ccc(NCCNCCO)c21 [co-crystallized ligand, 1,4-dihydroxy-5,8-bis({2-[(2-hydroxyethyl)amino]ethyl}amino)-9,10-anthracenedione]",–,IC50 [4]: 800 nM
